Measured values taken from patent US9567318B2, “Substituted pyrimidine compounds and uses thereof” (Memorial Sloan-Kettering Cancer Center, priority 2009, dated 2017).

How the values were obtained:
Assay type in all cases: cell-based, human
[1] = tested on: HER2, Raf-1, Akt, Hsp70 in SKBr3 cells; experiment: Western blotting of Hsp90 onco-client proteins and Hsp70 in SKBr3 cells
Experimental: FIG. 3. Testing strategy for the discovery of YK5. a, b) SKBr3 cells were treated for 24 h with the indicated concentrations of inhibitors and cells were lysed for western blot (WB) analysis. β-actin was used as loading control. The data are consistent with those obtained from multiple repeat experiments (n≧3). c) The ability of the indicated inhibitors to compete with GM-Cy3B for Hsp90 binding in SKBr3 cell extracts was examined by fluorescence polarization. Values recorded in wells with added inhibitor were normalized to values read in control wells and plotted against the concentration of tested inhibitor. Drugs were assayed in triplicate. All compounds were used as DMSO stocks. Points, mean; bars, s.d. d) Growth inhibition: SKBr3 cells were incubated in triplicate with increasing concentrations of compound and growth over 72 h was assessed. Y-axis values below 0% represent cell death of the starting population. HER2 degradation was analyzed as in panel a), and gels were quantified by densitometry. Recorded values were normalized to control (vehicle only treated cells) and data graphed against YK5 concentration. Error bars represent the s.d. of the mean (n=3).
FIG. 8. […] Points, mean; bars, s.d. Yaxis values below 0% represent cell death of the starting population. c) Streptavidin beads (50 μl) were incubated with the indicated concentrations of YK55, YK56 or D-biotin to immobilize the corresponding compounds on beads. Beads (50 μl) were probed with SKBr3 cell extracts (500 μg), and the precipitated Hsp70 analyzed by western blot and quantified by […]. Results from three independent experiments were graphed to determine the relative binding affinity of YKs. Points, mean; bars, s.d. d) Structure of representative YKs. YK55 and YK56 are the biotinylated derivatives of YK54 and YK57, respectively.
FIG. 9. […] Cells were treated for 24 h with the indicated concentrations of YK149 and YK5. Cells were lysed and proteins analyzed by western blotting. b) Examples of the compounds of the present subject matter inhibit the activity of the oncogenic STAT3 in the triple-negative breast cancer cells MDA-MB-468. Cells were treated for the indicated times with compounds or vehicle and proteins analyzed by western blot. (c) Examples of the compounds of the present subject matter dose-dependently induce apoptosis in the acute myeloid leukemia cells MOLM13. Cells were treated for 24 h with the indicated concentration of compounds and the increase in caspase3,7 activity was measured and compared to only vehicle (DMSO) treated cells. Caspase-3,7 activity was a measure of compound potency in cleaving the caspase substrate Z-DEVD-R110 and releasing rhodamine. The percentage increase in apoptotic cells was calculated by comparing the fluorescence readings obtained from compounds with those obtained from vehicle (DMSO)-treated cells.
Western Blotting. Cells were grown to 60-70% confluence and treated with inhibitor or DMSO vehicle for the indicated times. Protein lysates were prepared in 50 mM Tris pH 7.4, 150 mM NaCl and 1% NP-40 lysis buffer. Protein concentrations were measured using the BCA kit (Pierce) according to the manufacturer's instructions. […]

[2] = tested on: Kasumi-1 acute myeloid leukemia cells; experiment: Growth Inhibition Assay (Alamar blue), Kasumi-1; conditions: Kasumi-1 cells
Experimental: (§1) The IC50 values listed for some of these compounds illustrate the antiproliferative effects of the subject compounds and were obtained using the Growth Inhibition assays described herein.
(§2) Growth Inhibition Assay. Antiproliferative effects of inhibitors were evaluated using the dye Alamar blue. This reagent offers a rapid objective measure of cell viability in cell culture, and it uses the indicator dye resazurin to measure the metabolic capacity of cells, an indicator of cell viability. Briefly, cells were plated on Costar 96-well plates. For attached cells (such as SKBr3, MDA-MB-468, LNCaP, MRCS), 8,000 cells/well were used. For suspension cells (such as MOLM-13, Kasumi-1, OCI-Ly7, PBL), 20,000 cells/well were plated. Cells were allowed to incubate for 24 h at 37° C. before drug treatment. Drugs were added in triplicates at the indicated concentrations, and the plate was incubated for 72 h. Alamar Blue (440 μM) was added, and the plate read 6 h later using the Analyst GT (Fluorescence intensity mode, excitation 530 nm, emission 580 nm, with 560=dichroic mirror). Results were analyzed using the Softmax Pro software. The percentage cell growth inhibition was calculated by comparing fluorescence readings obtained from treated versus control cells, accounting for initial cell population (time zero).

[3] = tested on: SKBr3 HER2+ breast cancer cells; experiment: Growth Inhibition Assay (Alamar blue), SKBr3; conditions: Homo sapiens, SK-BR-3, 72 h
Experimental: as §1, §2

[4] = tested on: Kasumi-1 cells; experiment: Apoptosis, acridine orange/ethidium bromide, Kasumi-1; conditions: 10 μM, 24 h
Experimental: FIG. 13. YK5 has a higher apoptotic effect than Hsp90 inhibitors in select tumors. (a-d) Cells were treated with the indicated concentrations of inhibitors for the times presented. (a,b) Apoptotic cells were quantified by dual acridine orange/ethidium bromide staining as described in Methods. (c,d) Molecular markers of apoptosis (PARP cleavage) were analyzed in cells treated for 24 h with indicated concentrations of inhibitors (c) or for the indicated times with the indicated concentration of inhibitors (d) by western blotting. (e) MDAMB-468 cells were treated with vehicle, TNFα (20 ng/ml), YK5 (1 μM), pretreated with YK5 for 2 h before TNFα or co-treated, and cells were lysed for western blot analysis (left), or cell death was quantified by analyzing the hypodiploid population upon propidium iodine staining (right). […]
To determine whether cell death by YK5 was attributable to apoptosis, cells were treated with YK5 and effects on morphology, as well as on several effectors and mediators of apoptosis were analyzed (FIG. 13). To quantify the number of cells undergoing apoptosis, cells were stained with acridine orange/ethidium bromide (AO/EB) and analyzed under a fluorescence microscope for the percentage of viable, apoptotic (early and late) and necrotic cells. […]
Apoptosis-Acridine Orange/Ethidium Bromide. […] Percentage of apoptotic cells was determined from 200-300 cells counted in each group.

[5] = tested on: MDA-MB-468, SKBr3, LNCaP, MOLM-13, Kasumi-1, OCI-Ly7 and HuH7 cells; experiment: Growth inhibition in a panel of cancer cells; conditions: growth over 72 h
Experimental: Tested were MDA-MB-468 triple-negative breast cancer cells, SKBr3 HER2+breast cancer cells, LNCaP mAR+prostate cancer cells, MOLM-13 and Kasumi-1 acute myeloid leukemia cells, OCI-Ly7 diffuse large B-cell lymphoma cells and HuH7 hepatocellular carcinoma cells. […] In cancer cells, half growth inhibitory concentrations ([…]) recorded for YK5 were in high agreement with its potency to degrade Hsp90 onco-clients.
as §2

| SMILES | IC50 ([2]; Homo sapiens, Kasumi 1, 72 h) [µM] | IC50 [3] [µM] | also measured |
| --- | --- | --- | --- |
| COc1nc(N2CCN(C)CC2)nc(OC)c1Sc1cccc(NC(=O)CN)c1 [YK149, 2-amino-N-(3-(4,6-dimethoxy-2-(4-methylpiperazin-1-yl)pyrimidin-5-ylthio)phenyl)acetamide] | 13.9 | – | degradation of Hsp90 onco-client proteins (HER2, Raf-1, Akt) ([1]; SKBr3 cells, 24 h, western blot): dose-dependently reduce the steady-state levels of HER2 and Raf-1; IC50 ([2]; 72 h): 21 µM |
| COCC(=O)Nc1ccnc(Sc2c(C)nc(N3CCOCC3)nc2C)n1 [YK123, N-(2-(4,6-dimethyl-2-morpholinopyrimidin-5-ylthio)pyrimidin-4-yl)-2-methoxyacetamide] | 58.1 | > 100 | – |
| COc1nc(N2CCOCC2)nc(OC)c1Sc1cccc(N)c1 [PDP2, 3-(4,6-dimethoxy-2-morpholinopyrimidin-5-ylthio)aniline] | 79.7 | > 100 | – |
| COc1nc(N2CCCC2)nc(OC)c1Sc1nccc(NC(=O)C2CC2)n1 [YK110, N-(2-(4,6-dimethoxy-2-(pyrrolidin-1-yl)pyrimidin-5-ylthio)pyrimidin-4-yl)cyclopropanecarboxamide] | > 100 | > 100 | – |
| COc1nc(N2CCN(C)CC2)nc(OC)c1Sc1cccc(N)c1 [YK133, 3-(4,6-dimethoxy-2-(4-methylpiperazin-1-yl)pyrimidin-5-ylthio)aniline] | 30.5 | 37.3 | IC50 ([2]; 72 h): 25.4 µM |
| CCC(=O)Nc1ccnc(Sc2c(OC)nc(OC)nc2OC)n1 [YK77, N-(2-(2,4,6-trimethoxypyrimidin-5-ylthio)pyrimidin-4-yl)propionamide] | 62.3 | 79.2 | – |
| C=CC(=O)Nc1cccc(Sc2c(OC)nc(N3CCN(C)CC3)nc2OC)c1 [YK129, N-(3-(4,6-dimethoxy-2-(4-methylpiperazin-1-yl)pyrimidin-5-ylthio)phenyl)acrylamide] | 7.7 | 6.8 | IC50 ([2]; 72 h): 9.9 µM |
| CCC(=O)Nc1ccnc(Sc2c(OC)nc(N3CCCC3)nc2OC)n1 [YK106, N-(2-(4,6-dimethoxy-2-(pyrrolidin-1-yl)pyrimidin-5-ylthio)pyrimidin-4-yl)propionamide] | > 100 | 99.5 | – |
| C=CC(=O)Nc1ccnc(Sc2c(OC)nc(N3CC[N+](C)([O-])CC3)nc2OC)n1 [YK80, 4-(5-(4-acrylamidopyrimidin-2-ylthio)-4,6-dimethoxypyrimidin-2-yl)-1-methylpiperazine 1-oxide] | > 100 | 31.1 | – |
| COc1nc(N2CCN(C)CC2)nc(OC)c1Sc1cccc(NC(=O)C2CC2)c1 [YK139, N-(3-(4,6-dimethoxy-2-(4-methylpiperazin-1-yl)pyrimidin-5-ylthio)phenyl)cyclopropanecarboxamide] | 8.9 | 7.7 | IC50 ([2]; 72 h): 7.9 µM |
| C#CCCCn1c(Cc2cc(OC)c(OC)c(OC)c2Cl)nc2c(N)nc(F)nc21 [PU24FCl, reference compound] | – | – | feed-back induction of Hsp70 (heat shock response) ([1]; SKBr3 cells, 24 h): potently activated a heat shock response; cells undergoing apoptosis [4]: 9%; growth of all tested cancer cells [5]: inhibited the growth of all tested cancer cells |
| CC(C)NCCCn1c(Sc2cc3c(cc2I)OCO3)nc2c(N)ncnc21 [PU-H71, reference compound] | – | – | feed-back induction of Hsp70 (heat shock response) ([1]; SKBr3 cells, 24 h): potently activated a heat shock response; growth of all tested cancer cells [5]: inhibited the growth of all tested cancer cells |
| CCC(=O)Nc1ccnc(Sc2c(C)nc(N3CCOCC3)nc2C)n1 [YK118, N-(2-(4,6-dimethyl-2-morpholinopyrimidin-5-ylthio)pyrimidin-4-yl)propionamide] | > 100 | > 100 | – |
| CCC(=O)Nc1ccnc(Sc2c(C)nc(N3CCN(C)CC3)nc2C)n1 [YK86, N-(2-(4,6-dimethyl-2-(4-methylpiperazin-1-yl)pyrimidin-5-ylthio)pyrimidin-4-yl)propionamide] | 26.2 | 44.4 | – |
| C/C=C/C(=O)Nc1cccc(Sc2c(OC)nc(N3CCN(C)CC3)nc2OC)c1 [YK131, (E)-N-(3-(4,6-dimethoxy-2-(4-methylpiperazin-1-yl)pyrimidin-5-ylthio)phenyl)but-2-enamide] | 15 | 20.7 | – |
| CCOc1nc(N2CCN(C)CC2)nc(OCC)c1Sc1nc(N)cc(NC(=O)CC)n1 [YK31, N-(6-amino-2-(4,6-diethoxy-2-(4-methylpiperazin-1-yl)pyrimidin-5-ylthio)pyrimidin-4-yl)propionamide] | 34.1 | – | lowering of biological activity, ethylamide versus acrylamide YK30 ([1]; FIG. 8a, relative to YK30): 30 fold |
| C=CC(=O)Nc1ccnc(Sc2c(OC)nc(N3CCOCC3)nc2OC)n1 [YK73, N-(2-(4,6-dimethoxy-2-morpholinopyrimidin-5-ylthio)pyrimidin-4-yl)acrylamide] | 1.9 | 11.6 | – |
| C=C(C)C(=O)Nc1ccnc(Sc2c(C)nc(N3CCN(C)CC3)nc2C)n1 [YK88, N-(2-(4,6-dimethyl-2-(4-methylpiperazin-1-yl)pyrimidin-5-ylthio)pyrimidin-4-yl)methacrylamide] | 13.1 | 16.7 | – |
| CCC(=O)Nc1cccc(Sc2c(OC)nc(N)nc2OC)c1 [YK140, N-(3-(2-amino-4,6-dimethoxypyrimidin-5-ylthio)phenyl)propionamide] | 35.2 | 99.5 | – |
